This note sets out measurements from patent EP0585371B1, “AROMATIC OLIGOMERIC COMPOUNDS USEFUL AS MIMICS OF BIOACTIVE MACROMOLECULES” (RHONE-POULENC RORER INTERNATIONAL (HOLDINGS) INC., priority 1991, dated 1992).

Structures are written as SMILES. Where “and” joins values, the source holds several entries; their conditions need not be identical. Identical values can stand only once. Like-named read-outs stand apart in the source and are kept apart here.

Test [1] concerns the target T1, Human neutrophil elastase (Homo sapiens, UniProt P08246).
T1 construct: purchased ICN Biochemical
T1 sequence (P08246 30-267): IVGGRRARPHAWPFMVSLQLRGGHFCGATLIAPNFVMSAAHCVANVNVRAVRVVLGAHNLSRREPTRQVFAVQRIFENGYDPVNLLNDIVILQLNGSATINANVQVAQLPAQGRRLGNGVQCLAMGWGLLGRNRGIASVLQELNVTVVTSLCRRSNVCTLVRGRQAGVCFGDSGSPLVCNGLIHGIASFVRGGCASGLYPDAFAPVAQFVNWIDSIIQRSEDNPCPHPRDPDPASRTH
The experiment in a line: Human Granulocyte Elastase Inhibition Assay. The test is classed as biochemical. Conditions: substrate S-2484, pH 8.3. As to the method: The Human Granulocyte Elastase Inhibition assay is a standard test procedure and is essentially that of Kramps, et al., "L-Pyroglutamyl-L-prolyl-L-valine-p-nitroanilide, a highly specific substrate for granulocyte elastase", Scand. J. clin. Lab. Invest. 43, 427-432 (1983).
A stock solution of 8.0 mM L-pyroglutamyl-L-prolyl-L-valine-p-nitroanilide (S-2484, obtained from Kabi) in dimethylsulfoxide is diluted to 2.0 mM in 0.03 M Tris buffer, pH 8.3, to give the working substrate solution. Human neutrophil elastase (obtained from ICN Biochemical) is diluted in the same buffer to 1 unit/ml to give the working enzyme solution.
A control assay is run in which a solution of 10 µl of buffer and 10µl of working enzyme solution is incubated at room temperature for 1 minute and 330 µl of buffer and 50 µl of working substrate solution is then added. The increase in absorbance (ΔOD/min) at 405 nm is measured.
In the experimental assay 10µl of a solution containing a compound of the present invention (in concentrations ranging from 1 mg/ml to 0.1 µg/ml), or other inhibitor to be tested, in buffer is substituted for the 10 µl of buffer with which the enzyme is incubated in the control assay and the procedure followed as for the control assay above. The ΔOD/min is measured and the result expressed as percentage inhibition for the given concentration of inhibitor as compared with the ΔOD/min for the control. Percent inhibition versus concentration of compound of the present invention or other inhibitor is plotted and the data extrapolated to give the concentration required for 50% inhibition of the enzyme (IC50).

The subject of test [2] is normal pooled plasma. The experiment in a line: Anticoagulation activity, Activated Partial Thromboplastin Time (APTT) test. Conditions: concentration required to double clotting time. As to the method: The following test measures anticoagulant activity of the oligomers of the present invention and utilizes the Activated Partial Thromboplastin Time (APTT) test, with the following procedures.
To an assay cuvette is added 100 µl of normal pooled plasma (George King Biomedical Inc., Kansas) and […] of a solution containing the test compound in aqueous 50 mM Tris hydrochloride at pH 7.5 (0.2 mg of sample in one ml buffer). The sample is placed in a MLA coagulation timer which automatically maintains the sample at 37°C for 2.5 minutes, 100 µl of actin activated cephaloplastin reagent is injected, kept 5 minutes, 100 µl of 35 mM CaCI is injected, and clot formation is determined photometrically and the clotting time recorded. Each example is examined at a variety of concentrations, generally from about .025 mg/ml to about 1 mg/ml, and the clotting times are graphed as a function of concentration. From the graphic results, the concentration required to double clotting time (ICDCT) is calculated by linear interpolation.

Test [3] deals with T2, vWF Binding to Gp1b (Homo sapiens, UniProt P04275+P07359).
T2 construct: multimeric vWF (isolated from human plasma cryoprecipitate); Formalin-fixed platelets, prepared according to the method of MacFarlane; from tissue; host or cells: vWF from human plasma cryoprecipitate; GPIb on formalin-fixed platelets
T2 sequence (P04275 764-2813 limits assumed): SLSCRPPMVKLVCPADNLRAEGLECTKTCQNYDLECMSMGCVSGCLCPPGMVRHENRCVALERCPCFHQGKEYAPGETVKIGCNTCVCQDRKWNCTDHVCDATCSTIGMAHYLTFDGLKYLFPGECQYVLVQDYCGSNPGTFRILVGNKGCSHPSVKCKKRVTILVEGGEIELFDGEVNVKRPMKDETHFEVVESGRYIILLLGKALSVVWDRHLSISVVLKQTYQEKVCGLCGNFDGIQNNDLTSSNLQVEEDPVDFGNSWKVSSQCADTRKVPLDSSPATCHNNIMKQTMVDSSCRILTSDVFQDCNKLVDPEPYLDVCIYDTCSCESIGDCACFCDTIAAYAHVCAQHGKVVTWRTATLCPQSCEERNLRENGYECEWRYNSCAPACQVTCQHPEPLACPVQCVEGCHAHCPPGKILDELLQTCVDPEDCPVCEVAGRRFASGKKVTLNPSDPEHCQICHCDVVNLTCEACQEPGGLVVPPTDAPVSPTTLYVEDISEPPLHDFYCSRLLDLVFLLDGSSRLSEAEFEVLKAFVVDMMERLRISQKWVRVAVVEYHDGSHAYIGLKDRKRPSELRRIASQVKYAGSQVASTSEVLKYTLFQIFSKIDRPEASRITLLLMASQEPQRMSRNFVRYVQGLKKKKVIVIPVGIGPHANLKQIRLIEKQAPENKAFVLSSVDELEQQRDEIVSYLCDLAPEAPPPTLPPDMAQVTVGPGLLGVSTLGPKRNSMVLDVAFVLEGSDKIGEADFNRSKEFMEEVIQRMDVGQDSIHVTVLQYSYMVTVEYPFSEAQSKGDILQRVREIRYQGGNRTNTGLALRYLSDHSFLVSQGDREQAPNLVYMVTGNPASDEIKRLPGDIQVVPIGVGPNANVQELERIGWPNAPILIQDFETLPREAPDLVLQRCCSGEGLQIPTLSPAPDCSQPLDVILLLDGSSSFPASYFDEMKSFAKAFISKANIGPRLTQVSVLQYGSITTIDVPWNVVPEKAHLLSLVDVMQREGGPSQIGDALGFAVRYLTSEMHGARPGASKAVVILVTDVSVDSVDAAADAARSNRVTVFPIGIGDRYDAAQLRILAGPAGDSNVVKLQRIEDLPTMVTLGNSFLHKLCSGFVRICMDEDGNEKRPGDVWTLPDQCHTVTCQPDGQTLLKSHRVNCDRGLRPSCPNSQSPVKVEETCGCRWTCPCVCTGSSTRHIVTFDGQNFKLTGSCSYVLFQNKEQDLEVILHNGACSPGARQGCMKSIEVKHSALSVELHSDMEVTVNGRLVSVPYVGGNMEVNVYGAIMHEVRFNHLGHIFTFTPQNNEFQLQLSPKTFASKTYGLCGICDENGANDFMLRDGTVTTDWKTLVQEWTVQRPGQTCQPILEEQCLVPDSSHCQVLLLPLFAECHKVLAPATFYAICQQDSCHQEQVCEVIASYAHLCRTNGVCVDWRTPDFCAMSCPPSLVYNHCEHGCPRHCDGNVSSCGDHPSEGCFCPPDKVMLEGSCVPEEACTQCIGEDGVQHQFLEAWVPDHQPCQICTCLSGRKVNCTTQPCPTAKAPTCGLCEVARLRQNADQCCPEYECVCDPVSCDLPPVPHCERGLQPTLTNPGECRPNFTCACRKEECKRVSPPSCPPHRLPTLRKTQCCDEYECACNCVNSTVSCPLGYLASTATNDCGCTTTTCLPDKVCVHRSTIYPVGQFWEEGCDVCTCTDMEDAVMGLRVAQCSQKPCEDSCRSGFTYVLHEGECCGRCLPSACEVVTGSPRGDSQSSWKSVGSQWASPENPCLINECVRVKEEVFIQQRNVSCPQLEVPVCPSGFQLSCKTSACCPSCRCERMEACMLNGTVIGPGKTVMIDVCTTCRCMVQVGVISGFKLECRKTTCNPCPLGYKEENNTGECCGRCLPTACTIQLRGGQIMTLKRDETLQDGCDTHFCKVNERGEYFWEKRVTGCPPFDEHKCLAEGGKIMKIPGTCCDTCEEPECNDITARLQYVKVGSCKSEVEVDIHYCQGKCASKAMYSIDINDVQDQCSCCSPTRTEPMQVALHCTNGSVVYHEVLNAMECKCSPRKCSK
T2 sequence (P07359 17-652): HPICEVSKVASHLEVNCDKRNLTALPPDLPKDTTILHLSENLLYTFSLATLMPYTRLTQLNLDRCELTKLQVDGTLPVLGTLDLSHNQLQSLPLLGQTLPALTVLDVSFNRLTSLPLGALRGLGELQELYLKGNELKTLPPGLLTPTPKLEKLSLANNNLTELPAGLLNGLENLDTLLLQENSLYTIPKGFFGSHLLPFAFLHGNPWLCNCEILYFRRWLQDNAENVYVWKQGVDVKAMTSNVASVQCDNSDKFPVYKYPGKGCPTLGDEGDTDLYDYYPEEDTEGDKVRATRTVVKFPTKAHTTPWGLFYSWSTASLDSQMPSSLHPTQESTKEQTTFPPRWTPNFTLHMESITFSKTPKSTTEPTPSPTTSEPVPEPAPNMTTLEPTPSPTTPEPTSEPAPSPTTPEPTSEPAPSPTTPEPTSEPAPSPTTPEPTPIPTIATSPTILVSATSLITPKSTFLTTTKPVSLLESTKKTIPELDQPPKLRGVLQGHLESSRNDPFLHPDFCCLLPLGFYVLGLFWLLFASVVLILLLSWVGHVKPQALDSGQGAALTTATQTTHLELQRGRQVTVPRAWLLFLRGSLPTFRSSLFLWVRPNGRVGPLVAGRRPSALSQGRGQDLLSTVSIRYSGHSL
The experiment in a line: Inhibition of ristocetin-induced binding of 125I-vWF to formalin-fixed platelets. Conditions: at 100 µg/ml; ristocetin 1.0 mg/ml. As to the method:
The binding of vWf (vonWillebrand Factor) to glycoprotein Ib is measured in one of two experimental systems, in the presence of either ristocetin or botrocetin as modulators of binding. The ristocetin modulated binding is described herein.
Formalin-fixed platelets, prepared according to the method of MacFarlane, D. et al., Thromb. Diath. Haemorrh. 34, 306-308 (1975), were preincubated at room temperature for 15 minutes with specified dilutions of oligomers according to the present invention. Ristocetin, (Sigma, St. Louis, MO) diluted to a final concentration of 1.0 mg/ml, and ^125I-labelled multimeric vWF (isolated from human plasma cryoprecipitate according to the method of Fulcher, C.A. et al. Proc. Natl. Acad. Sci. USA, 79, 1648-1652 (1982), and labelled according to the method of Fraker, P.J. et al. Biochem. Biophys. Res. Commun., 80, 849-857 (1978)) were then added to the incubation mixture, and the amount of ^125I- vWF bound to the platelets was determined. ^125I-vWF binding to the platelets was referenced against 100% binding which was defined as the amount of ^125I- vWF bound in the absence of added oligomer compound. The method for measuring vWF binding is reported in detail in Ruggeri et al., J. Clin. Invest., 72, 1-12, (1983), herein incorporated by reference.

For test [4], the system named is Vascular smooth muscle cells (VSMC). Description: Smooth Muscle Cell DNA Synthesis Assay (3H-thymidine incorporation in response to PDGF). Conditions: inhibition of incorporation of 3H-thymidine in response to PDGF (9 ng/ml). Format: cell-based, swine. As to the method:
Vascular smooth muscle cells (VSMC) are isolated from swine coronaries obtained from swine hearts (Hatfield Meat Packing, Hatfield, PA) by enzyme dissociation as described by Gunther, et al., in J. Cell. Biol. 92, 289 (1982). Hyaluronidase (0.5 mg/ml) is added to facilitate dispersal. Cells are maintained in Earle's modified minimal essential medium (EMEM) with D-valine substituted for L-valine, supplemented with Hepes (10 mM), fetal bovine serum (FBS) (10%), penicillin (100 U/ml) and streptomycin ( 100 µg/ml).
The VSMC (passage 2) are plated at a density of 3 x 10^4 /cm2 (1x10^4 cells/well of 96 well tray) and after 48 hours of normal growth are arrested by replacement of above media with serum-free media for 48 hours consisting of: EMEM: Hams F12 (1:1), insulin, 5 µg/ml; transferrin, 35 µg/ml; selenite, 5 ng/ml; antibiotics and buffer (as above). The oligomer of the present invention to be tested (.01-10 µM) is added 2 hours prior to addition of porcine platelet derived growth factor (Research and Diagonostics, Minneapolis, MN), or FBS,in fresh serum-free media. Twenty-four hours later the oligomers are again added preceding addition of growth factors by 2 hours. […]
The VSMC are pulsed (5 hours) with ^3H-thymidine (Amersham, Arlington Heights, IL) (1 µCi/well of a 96 well plate; 42 Ci/mmole) added 15-18 hours after the last dose of growth factor. DNA synthesis is determined in NaOH extraction of ethanol/ether fixed cells as reported by Nemecek, et al., PNAS 83, 674 (1986). The cells are washed with phosphate bufferred saline (200 µl/well of 96-well tray. The cells are incubated with trichloroacetic acid (TCA) (10%, 200 ul) for 5 minutes to remove cytoplasmic label. After a rapid wash with cold 10% TCA, cells are fixed with ethanol/ether (2:1, 200 µl/well 5 min) and dried. The labeled DNA is extracted with 0.5 N NaOH (200 µl/well 30 min incubation, room temperature). The extracted DNA is neutralized (0.5 N HCI) and counted by liquid scintillation.
Statistical evaluation is as reported by Bilder, et al., Am. […] IC50 values are calculated by linear regression (RPL of RS1) from % inhibition of a minimum of 3 log fold dilutions of oligomers in the presence of PDGF (9 ng/ml) which give 70-80% of a maximal PDGF response. […] Percent inhibition is calculated by comparing the effect of PDGF alone (vehicle treated cultures + PDGF minus vehicle treated cultures without PDGF) to the effect of oligomers (oligomer + PDGF minus oligomer alone) and divided by the effect of PDGF times 100. i.e., = % inhibition = ((ΔVehicle + PDGF) - (Δoligomer + PDGF)/(Δvehicle + PDGF)) x 100.

Take `O=C(O)CCc1cc(Cc2cc(O)ccc2CCC(=O)O)c(O)cc1CCc1cc(O)c(Cc2cc(O)ccc2CCC(=O)O)cc1CCC(=O)O` [Ex 3, 1,2-bis-[2-(2-carboxyethyl)-4-[2-(2-carboxyethyl)-5-hydroxybenzyl]-5-hydroxyphenyl]ethane]: in test [1] (read-out: IC50 (converted)), the IC50 (as a rule, the midpoint of a concentration-inhibition curve) was > 1400 nM. Further, the “APTT ICDCT” value in test [2] was 700 µg/mL. The inhibition (commonly the drop in the measured response relative to a control, in per cent) at 100 µg/mL in test [3] came to 21%.
With `O=C(O)COc1cc(Cc2cc(OCc3ccccc3)c(Cc3cc(OCc4ccccc4)c(Cc4cc(O)ccc4OCC(=O)O)cc3OCC(=O)O)cc2OCC(=O)O)c(OCc2ccccc2)cc1CO` [Ex 16, 4-benzyloxy-5-[4-[4-[[2-carboxymethyloxy-5-hydroxy]benzyl]-[5-benzyloxy-2-carboxymethyloxy]benzyl]-[5-benzyloxy-2-carboxymethyloxy]benzyl]-2-hydroxymethylphenoxyacetic acid], the half-maximal inhibitory concentration (IC50) in test [1] (read-out: IC50 (converted)) is 330 nM and 327 nM. Further, the “APTT ICDCT” value in test [2] worked out at 360 µg/mL.
With `O=C(O)COc1cc(Cc2cc(O)ccc2OCC(=O)O)c(O)cc1CCc1cc(O)c(Cc2cc(O)ccc2OCC(=O)O)cc1OCC(=O)O` [Ex 17, 1 ,2-bis-[[2-carboxymethyloxy-5-hydroxy-4-(5-hydroxy-2-carboxymethyloxy)benzyl]phenyl]ethane], in test [1] (read-out: IC50 (converted)), the concentration for half-maximal inhibition (IC50) was 135 nM and 134 nM. For the same compound, the “APTT ICDCT” value in test [2] came to 580 µg/mL.
In test [4], `O=C(O)COc1cc(Cc2cc(OCc3ccccc3)c(Cc3cc(OCc4ccccc4)c(Cc4cc(OCc5ccccc5)c(Cc5cc(OCc6ccccc6)c(Cc6cc(O)ccc6OCC(=O)O)cc5OCC(=O)O)cc4OCC(=O)O)cc3OCC(=O)O)cc2OCC(=O)O)c(OCc2ccccc2)cc1CO` [Ex 19, 4-benzyloxy-5-[4-[4-[4-[4-[[2-carboxymethyloxy-5-hydroxy]benzyl]-[5-benzyloxy-2-carboxymethyloxy]benzyl]-[5-benzyloxy-2-carboxymethyloxy]benzyl]-[5-benzyloxy-2-carboxymethyloxy]benzyl]-[5-benzyloxy-2-carboxymethyloxy]benzyl]-2-hydroxymethylphenoxyacetic acid] yielded a 50% inhibitory concentration (IC50) of 0.3 µM. Moreover, the “APTT ICDCT” value in test [2] is 345 µg/mL.
For `O=C(O)COc1cc(Cc2cc(OCc3ccccc3)ccc2OCC(=O)O)c(O)cc1CCc1cc(O)c(Cc2cc(OCc3ccccc3)ccc2OCC(=O)O)cc1OCC(=O)O` [Ex 20, 1,2-bis-[[2-carboxymethyloxy-5-hydroxy-4-(5-benzyloxy-2-carboxymethyloxy)benzyl]phenyl]ethane], the IC50 in test [1] is 780 nM and 779 nM. Also, the “APTT ICDCT” value in test [2] was 555 µg/mL.
Consider `CCc1cc(OCC(=O)O)cc(Cc2cc(OCC(=O)O)cc(Cc3cc(OCC(=O)O)cc(Cc4cc(OCC(=O)O)ccc4OC)c3OC)c2OC)c1OC` [Ex 22, 5-[3-[3-[[5-carboxymethyloxy-2-methoxy]benzyl]-[5-carboxymethyloxy-2-methoxy]benzyl]-[5-carboxymethyloxy-2-methoxy]benzyl]-3-ethyl-4-methoxyphenoxyacetic acid], for which, in test [1] (unit printed in the cell of the nM column, read-out: IC50 (converted)), the half-inhibitory concentration (IC50) is > 3e+06 nM. The “APTT ICDCT” value in test [2] was >315 µg/mL.
Regarding `CCc1cc(OCC(=O)O)cc(Cc2cc(OCC(=O)O)cc(Cc3cc(OCC(=O)O)cc(Cc4cc(OCC(=O)O)cc(Cc5cc(OCC(=O)O)cc(Cc6cc(OCC(=O)O)cc(Cc7cc(OCC(=O)O)cc(Cc8cc(OCC(=O)O)ccc8OC)c7OC)c6OC)c5OC)c4OC)c3OC)c2OC)c1OC` [Ex 23, 5-[3-[3-[3-[3-[3-[3-[[5-carboxymethyloxy-2-methoxy]benzyl]-[5-carboxymethyloxy-2-methoxy]benzyl]-[5-carboxymethyloxy-2-methoxy]benzyl]-[5-carboxymethyloxy-2-methoxy]benzyl]-[5-carboxymethyloxy-2-methoxy]benzyl]-[5-carboxymethyloxy-2-methoxy]benzyl]-[5-carboxymethyloxy-2-methoxy]benzyl]-3-ethyl-4-methoxyphenoxyacetic acid], the IC50 in test [4] was determined as 0.3 µM. For the same compound, in test [2], the “APTT ICDCT” value was 300 µg/mL.
